Test systems include NCI-H460 lung; MOLT-4 leukemia; KM12 colon; SK-MEL-28 melanoma; HL-60(TB) leukemia; SF-539 CNS; UACC-62 melanoma; K-562 leukemia; SN12C renal; LOX IMVI melanoma.
Holding throughout (experiment): inhibition of tumour cell growth, NCI panel, 48 h

For 14 compounds, TGI and GI50 results are on record in PubChem BioAssay (NCI).

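Tested at 5 concentrations; 48 h exposure; 96-well plates; endpoints linearly interpolated, else capped at highest concentration. At the GI50, growth is halved. The concentration for full growth arrest is given as TGI.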 Bounds are passed on as bounds.

With `COC1CC(CC2CCC(C)C(C(C)C(=O)O)O2)OC2(OC(C)(C3CCC(C)(C4OC(C5OC(O)(CO)C(C)CC5C)CC4C)O3)CC2C)C1C` (configuration not stated), the TGI was found to be 22 µM in the assay on NCI-H460 lung; 6.13 µM with MOLT-4 leukemia; 11.9 µM in the assay on KM12 colon; 6.66 µM in the assay with SK-MEL-28 melanoma; 1.1 µM in the assay with HL-60(TB) leukemia; 10.3 µM with SF-539 CNS. Further, the TGI with UACC-62 melanoma was 4.44 µM; in the assay on K-562 leukemia it was 2.03 µM; with SN12C renal it was 23.7 µM; in the assay with LOX IMVI melanoma, 9.81 µM.
`O=S(=O)(O)c1cc(N=[N+]([O-])c2cc(S(=O)(=O)O)c3ccccc3c2)cc2ccccc12`: the TGI was > 100 µM with NCI-H460 lung; > 100 µM with KM12 colon; > 100 µM in the assay with SK-MEL-28 melanoma; > 100 µM in the assay on HL-60(TB) leukemia; 60.2 µM in the assay with SF-539 CNS; > 100 µM with UACC-62 melanoma. The figures for the TGI in the assay on K-562 leukemia, in the assay on SN12C renal and in the assay with LOX IMVI melanoma were > 100 µM, 53.8 µM and 60.6 µM, respectively.
On to `O=C1CC(c2ccc(Cl)cc2)C2(C(=O)NC(=O)NC2=O)C(c2ccc(Cl)cc2)C1` (configuration not stated), for which the TGI in the assay with NCI-H460 lung was > 75 µM; with MOLT-4 leukemia it was 41.3 µM; with KM12 colon it was > 75 µM; in the assay on SK-MEL-28 melanoma, 37 µM; with HL-60(TB) leukemia it was > 75 µM; in the assay with SF-539 CNS, > 75 µM. Further, the TGI was > 75 µM in the assay on UACC-62 melanoma, > 75 µM in the assay on K-562 leukemia, 54 µM with SN12C renal and > 75 µM in the assay on LOX IMVI melanoma.
In the case of `COc1cc2c(cc1OCCCCCCCCN1C(=O)c3cccc4cccc(c34)C1=O)N=C[C@@H]1CCCN1C2=O`, the TGI was determined as 72 µM with NCI-H460 lung; 9.42 µM in the assay on MOLT-4 leukemia; 52 µM with KM12 colon; 37.9 µM in the assay with SK-MEL-28 melanoma; 52.3 µM in the assay with HL-60(TB) leukemia; 13.2 µM in the assay on SF-539 CNS. For the same compound, the TGI in the assay on UACC-62 melanoma was found to be 28.4 µM; in the assay with K-562 leukemia, 23.1 µM; with SN12C renal it was 63.9 µM; with LOX IMVI melanoma, 25.5 µM.
As to `CC(C)C1OC(=O)/C=C/C=C/C=C/C=C/C=C/CC(O)C(C)C(O)CC(O)CC(O)CC(O)CC(O)CC(O)CC(O)/C=C/C1C` (configuration not stated), the TGI in the assay on NCI-H460 lung, in the assay on MOLT-4 leukemia, in the assay on KM12 colon, in the assay on SK-MEL-28 melanoma, in the assay on SF-539 CNS and in the assay on UACC-62 melanoma was > 100 µM each time. In addition, the TGI in the assay on K-562 leukemia was > 100 µM. The GI50 in the assay on HL-60(TB) leukemia is 2.13 µM.
`NC(=S)N1N=C(c2ccccc2O)CC1c1ccccc1` (configuration not stated): the TGI in the assay with NCI-H460 lung turned out to be 35.6 µM; with MOLT-4 leukemia it was 78.7 µM; in the assay with KM12 colon it was 43.4 µM; with SK-MEL-28 melanoma, 58.5 µM; with HL-60(TB) leukemia, 27.4 µM; in the assay with SF-539 CNS it was 36.1 µM. Further, the TGI in the assay with UACC-62 melanoma was 29.7 µM; in the assay with K-562 leukemia, > 100 µM; in the assay on SN12C renal it was 45.3 µM; with LOX IMVI melanoma, 46.2 µM.
Take `C1=CC(=[N+]2N=C(c3ccccc3)CC2c2ccccc2)C=CC1=C1SC(c2ccccc2)(c2ccccc2)c2ccccc21` (configuration not stated): the TGI in the assay with NCI-H460 lung, in the assay with MOLT-4 leukemia, in the assay on KM12 colon, in the assay on SK-MEL-28 melanoma, in the assay with HL-60(TB) leukemia and in the assay with SF-539 CNS was > 100 µM each time. Besides, the TGI with UACC-62 melanoma, in the assay on K-562 leukemia and in the assay on SN12C renal was > 100 µM in each case.
With `CCOC(=O)C1=COC(C)(c2ccccc2)CC1=O` (configuration not stated), the TGI was > 100 µM in the assay on NCI-H460 lung; 98 µM with MOLT-4 leukemia; > 100 µM in the assay with KM12 colon; > 100 µM in the assay on SK-MEL-28 melanoma; > 100 µM with SF-539 CNS; > 100 µM in the assay with UACC-62 melanoma. Moreover, the TGI in the assay on K-562 leukemia and in the assay with SN12C renal was > 100 µM in each case.
On to `O=C1CC2(CCC(O)(c3cccs3)C(C(=O)c3cccs3)C2)C(=O)c2ccccc2N1` (configuration not stated), for which the TGI was 46.6 µM in the assay on NCI-H460 lung; > 100 µM in the assay on MOLT-4 leukemia; > 100 µM with HL-60(TB) leukemia; > 100 µM in the assay on SF-539 CNS; > 100 µM in the assay with UACC-62 melanoma; > 100 µM with K-562 leukemia. The TGI with SN12C renal and in the assay on LOX IMVI melanoma was > 100 µM each time.
Consider `O=c1c2ccccc2[nH]c(=S)n1-c1ccc(N=Nc2cccc3cc(O)ccc23)cc1`, for which the TGI with NCI-H460 lung, in the assay with MOLT-4 leukemia, in the assay with KM12 colon, in the assay with SK-MEL-28 melanoma, with HL-60(TB) leukemia and in the assay on SF-539 CNS was > 100 µM in each case. Besides, the TGI in the assay on UACC-62 melanoma, in the assay on K-562 leukemia, with SN12C renal and in the assay with LOX IMVI melanoma was > 100 µM each time.
As for `O=C(Cn1c2ccc(Br)cc2c2nc3ccccc3nc21)N/N=C/c1ccccc1`, the TGI is > 100 µM with KM12 colon; > 100 µM in the assay on SK-MEL-28 melanoma; 53.6 µM in the assay with SF-539 CNS; > 100 µM in the assay on UACC-62 melanoma; > 100 µM with K-562 leukemia; > 100 µM in the assay with SN12C renal.
As for `CC(C)(C)[Si](C)(C)OCC1OC(n2cnc3c(N)ncnc32)CC1OS(C)(=O)=O` (configuration not stated), the TGI in the assay on NCI-H460 lung, with MOLT-4 leukemia, with KM12 colon, in the assay with SK-MEL-28 melanoma, with HL-60(TB) leukemia and in the assay on UACC-62 melanoma was > 100 µM each time. Besides, the TGI in the assay with K-562 leukemia, in the assay with SN12C renal and with LOX IMVI melanoma was > 100 µM throughout.
Regarding `Nc1cc(-c2ccc(Cl)cc2)nn1-c1nc2ccccc2nc1-c1ccccc1`, the TGI in the assay with NCI-H460 lung, in the assay on MOLT-4 leukemia, in the assay on KM12 colon, in the assay on SK-MEL-28 melanoma, with HL-60(TB) leukemia and with SF-539 CNS was > 100 µM each time. In addition, the TGI with UACC-62 melanoma, with K-562 leukemia, in the assay on SN12C renal and in the assay with LOX IMVI melanoma was > 100 µM in each case.
`CCO/C(O)=C(/C(=N)N1CCCC1)C(=O)Nc1ccc(F)cc1`: the TGI in the assay on NCI-H460 lung, in the assay on MOLT-4 leukemia, in the assay with KM12 colon, in the assay on SK-MEL-28 melanoma, in the assay on HL-60(TB) leukemia and with SF-539 CNS was > 100 µM each time. Also, the TGI in the assay on UACC-62 melanoma, in the assay with K-562 leukemia, with SN12C renal and in the assay with LOX IMVI melanoma was > 100 µM in each case.
